Here are results for 16 compounds from patent US8314121B2, “Imidazolone derivatives, preparation thereof as drugs, pharmaceutical compositions, and use thereof as protein kinase inhibitors, in particular CDC7” (Sanofi, priority 2006, dated 2012).

On to `CCCCC1=N/C(=C\c2c[nH]c3nc(Cl)ccc23)C(=O)N1` [Example 65, (5Z)-2-butyl-5-[(6-chloro-1H-pyrrolo[2,3-b]pyridin-3-yl)methylidene]-3,5-dihydro-4H-imidazol-4-one], for which the melting point is 318 to 321 °C.

In turn, `O=C1NC(SCc2ccccc2)=N/C1=C\c1c[nH]c2ncc(Cl)cc12` [Example 61, (5Z)-2-(benzylsulphanyl)-5-[(5-chloro-1H-pyrrolo[2,3-b]pyridin-3-yl)methylidene]-3,5-dihydro-4H-imidazol-4-one] returned a melting point of 313 to 315 °C.

With `O=C1NC(N2CCCCC2)=N/C1=C\c1c[nH]c2ncc(-c3ccccc3)cc12` [Example 40, (5Z)-5-[(5-phenyl-1H-pyrrolo[2,3-b]pyridin-3-yl)methylidene]-2-piperidin-1-yl-3,5-dihydro-4H-imidazol-4-one], the melting point stood at 307 °C.

On to `Cc1cnc2[nH]cc(/C=C3\N=C(N4CCCCC4)NC3=O)c2c1` [Example 45, (5Z)-5-[(5-methyl-1H-pyrrolo[2,3-b]pyridin-3-yl)methylidene]-2-piperidin-1-yl-3,5-dihydro-4H-imidazol-4-one], for which the melting point was in the range of 320 to 321 °C.

On to `O=C1NC(N2CCCCCC2)=N/C1=C\c1c[nH]c2ncc(-c3ccccc3)cc12` [Example 42, (5Z)-2-azepan-1-yl-5-[(5-phenyl-1H-pyrrolo[2,3-b]pyridin-3-yl)methylidene]-3,5-dihydro-4H-imidazol-4-one], for which the melting point came out at 302 °C.

In turn, `Cc1cnc2[nH]cc(/C=C3\N=C(NCC4CC4)NC3=O)c2c1` [Example 43, (5Z)-2-[(cyclopropylmethyl)amino]-5-[(5-methyl-1H-pyrrolo[2,3-b]pyridin-3-yl)methylidene]-3,5-dihydro-4H-imidazol-4-one] had a melting point of 319 to 320 °C.

As to `COC1=N/C(=C\c2c[nH]c3ncc(Cl)cc23)C(=O)N1c1ccccc1` [Example 98, (5Z)-5-[1-(5-chloro-1H-pyrrolo[2,3-b]pyridin-3-yl)-methylidene]-2-methoxy-3-phenyl-3,5-dihydro-4H-imidazol-4-one], the melting point amounted to 227.5 °C.

In the case of `COCCN(C)C1=N/C(=C\c2c[nH]c3ncc(Cl)cc23)C(=O)N1` [Example 95, (5Z)-5-[(5-chloro-1H-pyrrolo[2,3-b]pyridin-3-yl)methylidene]-2-[(2-methoxyethyl)(methyl)amino]-3,5-dihydro-4H-imidazol-4-one], the melting point was 281 °C.

Compound `COc1cnc2[nH]cc(/C=C3\N=C(NCC4CC4)NC3=O)c2c1` [Example 34, (5Z)-2-[(cyclopropylmethyl)amino]-5-[(5-methoxy-1H-pyrrolo[2,3-b]pyridin-3-yl)methylidene]-3,5-dihydro-4H-imidazol-4-one] had a melting point of 280 to 286 °C.

As for `CCCN1C(=O)/C(=C/c2c[nH]c3ncccc23)N=C1C` [Example 87, (5Z)-2-methyl-3-propyl-5-(1H-pyrrolo[2,3-b]pyridin-3-ylmethylidene)-3,5-dihydro-4H-imidazol-4-one], the melting point was 206 °C.

As to `CC(C)C1=N/C(=C\c2c[nH]c3ncc(Cl)cc23)C(=O)N1C` [Example 82, (5Z)-5-[(5-chloro-1H-pyrrolo[2,3-b]pyridin-3-yl)methylidene]-3-methyl-2-(1-methylethyl)-3,5-dihydro-4H-imidazol-4-one], the melting point was found to be 282 °C.

Compound `CC(C)CCC1=N/C(=C\c2c[nH]c3ncccc23)C(=O)N1` [Example 68, (5Z)-2-(3-methylbutyl)-5-(1H-pyrrolo[2,3-b]pyridin-3-ylmethylidene)-3,5-dihydro-4H-imidazol-4-one] came in with a melting point of 274 °C.

Take `CCCCC1=N/C(=C\c2c[nH]c3ncccc23)C(=O)N1C` [Example 66, (5Z)-2-butyl-3-methyl-5-(1H-pyrrolo[2,3-b]pyridin-3-ylmethylidene)-3,5-dihydro-4H-imidazol-4-one]: the melting point was 220 to 222 °C.

As for `CN(C)C1=N/C(=C\c2c[nH]c3ncc(Cl)cc23)C(=O)N1` [Example 32, (5Z)-5-[(5-chloro-1H-pyrrolo[2,3-b]pyridin-3-yl)methylidene]-2-(dimethylamino)-3,5-dihydro-4H-imidazol-4-one], the melting point stood at 350 °C.

For the compound `O=C1NC(=S)N/C1=C\c1c[nH]c2ncc(-c3ccccc3)cc12` [Example 16, (5Z)-5-[(5-phenyl-1H-pyrrolo[2,3-b]pyridin-3-yl)methylene]-2-thioxoimidazolidin-4-one], the melting point was in the range of 265 to 270 °C.

As to `O=C1NC(CCc2ccccc2)=N/C1=C\c1c[nH]c2ncccc12` [Example 67, (5Z)-2-(2-Phenylethyl)-5-(1H-pyrrolo[2,3-b]pyridin-3-ylmethylidene)-3,5-dihydro-4H-imidazol-4-one], the melting point was 270 to 272 °C.

The term melting point denotes the temperature, or range, at which the solid turns liquid.
